Reference: US11167039B2, “MET antibody drug conjugates” (priority 2016, dated 2021)

Tests used:
[1] = tested on: MiaPaca-2; experiment: Cell killing, MiaPaca-2; type: cell-based, human; design: key: Sensitive; Resistant; details: MiaPaca-2, PANC Ca
Method: (§1) Briefly described, 2-3×10^3 cells/well in 100 μL of culture medium may be plated in 96 well plates and incubated overnight at 37° C., 5% CO2. The MET-ADCs, MET antibody(ies), control MMAE or control hIgG4 conjugated to MMAE with cysteine conjugation antibody(ies) may be diluted 1:3 in serum-free culture medium starting from 100 nM (final) in 50 μL as 3× concentrations to the HT-29 cells. At the end of an additional 5-6 days of cell growth at 37° C. in a humidified incubator with 5% CO2, the plates may be equilibrated to room temperature for 30 minutes and 100 μL/well of CellTiter-Glo® reagent (Promega Corp., Fitchburg, Wis.) may then be added to assess cell viability. Cell viability may be determined by measuring luminescence.
(§2) Various tumor cell lines and normal human cells may be tested for MET-ADC induced cell killing activity essentially as described above in Example 10 as assessed for MET receptor density. MET cell surface density was determined by indirect immunofluorescence staining of cell surface antigens on cultured cells using QIFIKIT (Dako). […] Following a forty-five minute incubation, cells may be incubated for 1 hour on ice with FITC conjugated antibody diluted 1:50 in FACS buffer. Then cells may be washed and receptor numbers may be determined by indirect immunofluorescence staining of the QIFIKIT beads using a Becton Dickinson LSRII flow cytometer.

[2] = tested on: cholangiocarcinoma PDX tumors; experiment: Cholangiocarcinoma PDX model; type: in vivo, mouse; details: 5 mg/kg weekly, four doses; 4 cholangiocarcinoma PDX
From the text: (§3) Body weight can also be assessed regularly.
Tumor samples from 4 human cholangiocarcinoma patients were individually implanted into different immunocompromised mice (i.e., each mouse carried one tumor derived from a patient's cholangiocarcinoma tumor) essentially as described above in this Example 13.

[3] = tested on: GEO; experiment: Cell killing, GEO; type: cell-based, human; design: key: Sensitive; Resistant; details: Colorectal Ca
Method: as §1, §2

[4] = tested on: AOSMC; experiment: Cell killing, non-tumor AOSMC; type: cell-based, human; design: key: Sensitive; Resistant; details: aortic smooth muscule cell
Method: as §1, §2

[5] = tested on: humen fresh activated PBMC; experiment: Cell killing, fresh activated PBMC; type: cell-based, human; design: key: Sensitive; Resistant; details: 3 donors
Method: as §1, §2

[6] = tested on: Su.86.86; experiment: Cell killing, Su.86.86; type: cell-based, human; design: key: Sensitive; Resistant; details: Su.86.86, PANC Ca
Method: as §1, §2

[7] = tested on: H441; experiment: Cell killing, H441; type: cell-based, human; design: key: Sensitive; Resistant; details: H441, NSCLC
Method: as §1, §2

[8] = tested on: H1993; experiment: Cell killing, H1993; type: cell-based, human; design: key: Sensitive; Resistant; details: H1993, NSCLC
Method: as §1, §2

[9] = tested on: T47D; experiment: Cell killing, T47D; type: cell-based, human; design: key: Sensitive; Resistant; details: Breast Ca
Method: as §1, §2

[10] = tested on: humen fresh hepatocyte; experiment: Cell killing, fresh hepatocyte; type: cell-based, human; design: key: Sensitive; Resistant
Method: as §1, §2

[11] = tested on: BxPC-3; experiment: Cell killing, BxPC-3; type: cell-based, human; design: key: Sensitive; Resistant; details: BxPC-3, PANC Ca
Method: as §1, §2

[12] = tested on: pancreatic cancer PDX tumors; experiment: Pancreatic cancer patient-derived xenograft (PDX) models; type: in vivo, mouse; details: 5 mg/kg weekly, four doses
From the text: as §3
Pancreatic tumors are known in the art to overexpress MET and have more than 90% KRAS mutations (Yabar, C. S. and Winter, J. M., Gastroenterol Clin N Am 45: 429-445 (2016)). Pancreatic tumor samples from 40 human pancreatic cancer patients were individually implanted into different immunocompromised mice (i.e., each mouse carried one tumor derived from a patient's […] tumor) essentially as described above in this Example 12.

[13] = tested on: Hs 746T; experiment: Cell killing, Hs 746T; type: cell-based, human; design: key: Sensitive; Resistant; details: Gastric Ca
Method: as §1, §2

[14] = tested on: SNU869; experiment: Cell killing, SNU869; type: cell-based, human; design: key: Sensitive; Resistant; details: SNU869, Cholangiocarcinoma
Method: as §1, §2

[15] = tested on: SNU-5; experiment: Cell killing, SNU-5; type: cell-based, human; design: key: Sensitive; Resistant; details: SNU-5, Gastric Ca
Method: as §1, §2

[16] = tested on: EBC-1; experiment: Cell killing, EBC-1; type: cell-based, human; design: key: Sensitive; Resistant; details: EBC-1, NSCLC
Method: as §1, §2

[17] = tested on: PC3; experiment: Cell killing, PC3; type: cell-based, human; design: key: Sensitive; Resistant; details: PC3, Prostatic Ca
Method: as §1, §2

[18] = tested on: CXF-269L; experiment: Cell killing, CXF-269L; type: cell-based, human; design: key to Sensitive/ Resistant: Sensitive; Resistant
Method: as §1, §2

[19] = tested on: HT-29 colon cancer tumor xenografts; experiment: HT-29 mouse xenograft model; type: in vivo; details: 1 mg/kg x3 Q7D
Method: Female athymic nude mice age 6- to 7-weeks old are available commercially, including from Harlan Laboratories (Indianapolis, Ind.). The mice are allowed to acclimate for one week and fed ad libitum on a normal low fat (4.5%) diet, which may be continued for the duration of the study. Tumor cells may be purchased from ATCC and may be cultured in cell culture media such as RPMI 1640 (Life Technologies) with L-glutamine, 25 mM HEPES supplemented with 10% FBS and 1 mM Na Pyruvate. Cells may be detached, washed with serum free medium and then resuspended at a final concentration of 50×10^6 cells/mL in serum free RPMI 1640. Tumor cells, approximately 5×10^6, may be injected subcutaneously in the rear flank of subject mice in a 1:1 mixture of serum free growth medium and Matrigel (Becton Dickinson, Bedford, Mass.). Tumor and body weight measurements may be performed twice weekly. Prior to treatment, mice can be randomized based on tumor size using a randomization algorithm. Treatments may be started when the average tumor volume reaches 100 mm^3. […]
MET-ADCs and control hIgG4-MMAE may be prepared in Phosphate Buffered Saline (PBS) prior to dose. Tumor size may be determined by caliper measurements. […] Tumor volume data can be transformed to a log scale to equalize variance across time and treatment groups. Log volume data can be analyzed with two-way repeated measures ANOVA by time and treatment using SAS PROC MIXED software (SAS Institutes Inc, Cary, N.C.). Treatment groups are compared with the specified control group at each time point.

Substance: MET-ADC#1: emibetuzumab lysine-conjugated via (2,5-dioxopyrrolidin-1-yl) 2-azidoacetate and Octyne-β-Glucn-MMAE
- Sensitive/ Resistant [1]: R
- inhibition of tumor growth [2]: dramatically inhibited tumor growth
- Sensitive/ Resistant [3]: R
- Sensitive/ Resistant [4]: R
- Sensitive/ Resistant [5]: R
- Sensitive/ Resistant [6]: R
- Sensitive/ Resistant [7]: S
- Sensitive/ Resistant [8]: S
- Sensitive/ Resistant [9]: R
- Sensitive/ Resistant [10]: R
- Sensitive/ Resistant [11]: S
- DCR: disease control rate (CR+PR+SD over total 40) [12]: 60%
- PD: progressive disease (% Delta T/C>10%), number of PDX ([12]; total 40): 16
- PR: partial response (% Regression<=−50% and tumor volume>14 mm^3), number of PDX ([12]; total 40): 9
- effect on volume of pancreatic cancer PDX tumors ([12]; vs control hIgG4-ADC): profoundly reduced the volume of the pancreatic cancer PDX tumors
- Sensitive/ Resistant [13]: S
- Sensitive/ Resistant [14]: S
- Sensitive/ Resistant [15]: S
- Sensitive/ Resistant [16]: S
- Sensitive/ Resistant [17]: S
- cell killing activity in CXF-269L cells ([18]; CXF-269L (TP53) colon cancer cells): killed
- Sensitive/ Resistant ([18]; CXF-269L, Colorectal Ca): S
- Observation (efficacy in HT-29 mouse xenograft) [19]: Tumor regression^
- Observation (efficacy in HT-29 mouse xenograft) ([19]; listed as MET-ADC #1): far superior efficacy
